One assay deals with USA100. The assay is described as follows: Synergy of ASU014 with antibiotics (MIC/FIC). Type of assay: cell-based, S. aureus. The settings on record: for Antibiotic MIC, Antibiotic Only: USA100; for Antibiotic MIC +¼ MIC (ASU014) / FIC +¼ MIC (ASU014): USA100, with ¼ MIC ASU014; for Antibiotic MIC +½ MIC (ASU014) / FIC +½ MIC (ASU014): USA100, with ½ MIC ASU014; for Antibiotic MIC +⅛ MIC (ASU014) / FIC +⅛ MIC (ASU014): USA100, with ⅛ MIC ASU014.

A further assay deals with MSSA. As to the kind of experiment: MIC against a panel of Gram-positive and Gram-negative bacteria. Type of assay: cell-based, S. aureus.
Assay [1] relates to MRSA (USA500) BEI: HFH-30522. Described as above. Type of assay: cell-based, Staphylococcus aureus.
For assay [2], the system named is MRSA (USA400) BEI: HFH-30364. Described as above. It counts as cell-based, Staphylococcus aureus.
Assay [3] relates to MRSA (USA100) BEI: HFH-30123. The assay is described as above. It counts as cell-based. To be noted: Staphylococcus aureus.
Assay [4] relates to MRSA (USA300) BEI: FOO3/HI168. Described as above. Type of assay: cell-based, Staphylococcus aureus.
The subject of the next assay is P. aeruginosa PAO1. The assay is described as above. Type of assay: cell-based. The settings on record: Pseudomonas aeruginosa.
A further assay concerns USA300-HI168. The assay is described as follows: Synergy of ASU014 with antibiotics (MIC/FIC). It counts as cell-based, S. aureus. To be noted: for Antibiotic MIC, Antibiotic Only: USA300-HI168; for Antibiotic MIC +¼ MIC (ASU014) / FIC +¼ MIC (ASU014): USA300-HI168, with ¼ MIC ASU014; for Antibiotic MIC +½ MIC (ASU014) / FIC +½ MIC (ASU014): USA300-HI168, with ½ MIC ASU014.

In a further assay the test system is MSSA UAB637. The assay is described as follows: Synergy of ASU014 with antibiotics (MIC/FIC). It counts as cell-based, S. aureus.
Another assay concerns USA300-LAC. As to the kind of experiment: Synergy of ASU014 with antibiotics (MIC/FIC). Type of assay: cell-based, S. aureus.
The next assay has as its system MRSA (USA300-LAC). The assay is described as follows: MIC against a panel of Gram-positive and Gram-negative bacteria. Type of assay: cell-based, Staphylococcus aureus.
[5] abbreviates: Staphylococcus aureus, read-out: MIC.
Setting [6] is: USA300-HI168, with ⅛ MIC ASU014.

In brackets after ≈: the same amount, converted by molar mass. Read-outs that look alike come from different tables or passages of the source. A value given as a limit tells only on which side of the number the result lay.

A word on the MIC: it is the smallest concentration in the dilution series that meets the test's criterion for growth inhibition. With `CC1(C)S[C@@H]2[C@H](NC(=O)[C@H](N)c3ccc(O)cc3)C(=O)N2[C@H]1C(=O)O` [Amoxicillin, amoxicillin], the MIC in the assay on USA100 (Staphylococcus aureus, MRSA / USA100, this MRSA strain, antibiotic alone) is over 256 µg/mL. In addition, in the assay with USA100, the “Antibiotic MIC, Antibiotic Only” value was over 256 µg/mL; the “Antibiotic MIC +¼ MIC (ASU014)” value amounted to 32 µg/mL; the “FIC +¼ MIC (ASU014)” value was 0.38; the “Antibiotic MIC +½ MIC (ASU014)” value was 4 µg/mL. Also, in the assay on USA100, the “FIC +½ MIC (ASU014)” value was determined as 0.52 and the “Antibiotic MIC +⅛ MIC (ASU014)” value is over 256 µg/mL.

Regarding `O=C(O)c1cn(C2CC2)c2cc(N3CCNCC3)c(F)cc2c1=O` [Cipro, Ciprofloxacin], the “Antibiotic MIC, Antibiotic Only” value in the assay on USA100 is over 32 µg/mL. Further, in the assay on USA100, the “Antibiotic MIC +¼ MIC (ASU014)” value is over 32 µg/mL. Also, in the assay with USA100, the “Antibiotic MIC +½ MIC (ASU014)” value was over 32 µg/mL. In addition, in the assay on USA100, the “Antibiotic MIC +⅛ MIC (ASU014)” value was over 32 µg/mL. For the same compound, the MIC in the assay on MSSA (setting [5]) is 0.25 µg/mL (≈ 0.754 µM); in [1] (setting [5]), over 4 µg/mL; in [2] (setting [5]), 0.5 µg/mL (≈ 1.51 µM); in [3], over 4 µg/mL; in [4] (setting [5]) it was 0.5 µg/mL (≈ 1.51 µM); with P. aeruginosa PAO1, 0.5 µg/mL (≈ 1.51 µM).

On to `CCOc1ccc2ccccc2c1C(=O)N[C@@H]1C(=O)N2[C@@H]1SC(C)(C)[C@@H]2C(=O)O` [Nafcillin, nafcillin], for which, in the assay on USA100, the “Antibiotic MIC, Antibiotic Only” value was found to be 32 µg/mL; the “Antibiotic MIC +¼ MIC (ASU014)” value was determined as 2 µg/mL; the “FIC +¼ MIC (ASU014)” value amounted to 0.31; the “Antibiotic MIC +½ MIC (ASU014)” value was 2 µg/mL. In addition, in the assay on USA100, the “FIC +½ MIC (ASU014)” value was determined as 0.56, the “Antibiotic MIC +⅛ MIC (ASU014)” value was determined as 8 µg/mL and the “FIC +⅛ MIC (ASU014)” value is 0.38.

On to `Cc1onc(-c2ccccc2)c1C(=O)N[C@@H]1C(=O)N2[C@@H]1SC(C)(C)[C@@H]2C(=O)O` [Oxa, oxacillin], for which the results for the “Antibiotic MIC, Antibiotic Only” value in the assay with USA300-HI168, with MSSA UAB637 (MSSA UAB637) and in the assay on USA300-LAC were 2 µg/mL, 0.125 µg/mL and 64 µg/mL, respectively. Moreover, the “Antibiotic MIC +¼ MIC (ASU014)” value with USA300-HI168 came out at 0.125 µg/mL; in the assay with USA100 it was 8 µg/mL; with MSSA UAB637 (MSSA UAB637, with ¼ MIC ASU014), 0.125 µg/mL; with USA300-LAC (with ¼ MIC ASU014) it was 4 µg/mL. Also, the “FIC +¼ MIC (ASU014)” value with USA300-HI168, with USA100 and in the assay on USA300-LAC (with ¼ MIC ASU014) was 0.31 throughout. The “Antibiotic MIC +½ MIC (ASU014)” value with USA300-HI168 was 0.063 µg/mL; in the assay on USA100, 4 µg/mL; in the assay on MSSA UAB637 (MSSA UAB637, with ½ MIC ASU014), 0.125 µg/mL; with USA300-LAC (with ½ MIC ASU014), 4 µg/mL. Besides, the “FIC +½ MIC (ASU014)” value with USA300-HI168 amounted to 0.53; in the assay with USA100, 0.53; with USA300-LAC (with ½ MIC ASU014), 0.56. The “Antibiotic MIC +⅛ MIC (ASU014)” value was determined as 0.5 µg/mL in the assay with USA300-HI168 (setting [6]); 64 µg/mL with USA100; 0.125 µg/mL with MSSA UAB637 (MSSA UAB637, with ⅛ MIC ASU014); 8 µg/mL in the assay on USA300-LAC (with ⅛ MIC ASU014). The “FIC +⅛ MIC (ASU014)” value in the assay on USA300-HI168 (setting [6]) came out at 0.38; with USA100, 0.63; in the assay on USA300-LAC (with ⅛ MIC ASU014) it was 0.25. The MIC was under 0.25 µg/mL with MSSA; 8 µg/mL (≈ 19.9 µM) in [1]; 64 µg/mL (≈ 159 µM) in the assay with MRSA (USA300-LAC); 8 µg/mL (≈ 19.9 µM) in assay [2]; 32 µg/mL (≈ 79.7 µM) in [4].

On to `[H]/N=C(/N)N[C@H]1[C@H](O)[C@@H](O)[C@H](O[C@@H]2O[C@@H](C)[C@](O)(C=O)[C@H]2O[C@@H]2O[C@@H](CO)[C@H](O)[C@@H](O)[C@@H]2NC)[C@@H](N/C(N)=N\[H])[C@@H]1O` [Streptomycin], for which, in the assay with USA300-HI168, the “Antibiotic MIC, Antibiotic Only” value worked out at 4 µg/mL; the “Antibiotic MIC +¼ MIC (ASU014)” value stood at 2 µg/mL; the “FIC +¼ MIC (ASU014)” value stood at 0.75; the “Antibiotic MIC +½ MIC (ASU014)” value was 0.5 µg/mL. The “FIC +½ MIC (ASU014)” value in the assay with USA300-HI168 was determined as 0.63. Also, in the assay on USA300-HI168 (setting [6]), the “Antibiotic MIC +⅛ MIC (ASU014)” value was 4 µg/mL.
